Experimental data published in patent US20090246292A1, “ANTIMICROBIAL FORMULATIONS COMPRISING A QUINONE AND A COPPER SALT” (priority 2006, published 2009).
Read-outs that look alike come from different tables or passages of the source.

Tests used:
P. acnes NCTC 737 [1] = assay: Synergy disc diffusion assay (SDDA), also supplemented
S. aureus ATCC 29213 [2] = assay: Minimum bactericidal concentration (MBC) assay; type: cell-based, Staphylococcus aureus
Experimental: (§1) (b) Minimum Bactericidal Concentration (MBC) Assay
(§2) Following incubation they were examined visually for bacterial growth.

P. acnes NCTC 737 [3] = assay: Disc diffusion assay (DDA), also supplemented;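 note: paper disc carrying compound placed on inoculated Wilkins-Chalgren Anaerobe agar pH 6.0, with lipid or NaCl supplement where listed, anaerobic 37 °C for 72 h, inhibition zone diameter read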
Experimental: The propionibacteria were cultured and maintained on Wilkins-Chalgren Anaerobe Medium (agar and broth) at pH 6.0; all cultures were incubated anaerobically at 37° C. for 72 hours.
(d) Disc Diffusion Assay (DDA)
(§6) A sterile paper disc was impregnated with a sample of the test compound in a suitable solvent and 30 minutes allowed for the solvents to evaporate (where possible). The disc was then placed on an agar plate onto which the test micro-organism had been inoculated. The plate was then incubated under the conditions described above, following which it was examined visually for signs of bacterial growth. […] The diameter of this zone of “inhibition” was measured using a ProtoCOL™ automated zone sizer (Synbiosis, Cambridge, UK).
(f) Supplemented Disc Diffusion Assays
For assays using Propionibacterium spp. strains the supplements used in the examples below were lipid (either Tween™ 80 or triolein, both at 1% v/v) and sodium chloride (100 mM).

P. acnes NCTC 737 [4] = assay: Minimum inhibitory concentration (MIC) assay; type: cell-based, Propionibacterium acnes
Source text: (§3) (a) Minimum Inhibitory Concentration (MIC) Assay
(§4) The culture media were as described above.
(§5) The assays included both negative (culture medium with no micro-organisms) and positive (culture medium plus diluting solvent plus micro-organism) controls.

S. aureus ATCC 29213 [5] = assay: Synergy disc diffusion assay (SDDA), also supplemented;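 note: disc diffusion on Mueller-Hinton agar at pH 7.2, aerobic incubation at 37 °C lasting 19-20 h, two compounds assessed jointly for combined antimicrobial effect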
Experimental: (e) Synergy Disc Diffusion Assay (SDDA)
This is a variation on the DDA method, in which two compounds are tested together for their combined antimicrobial activity.
Two test compounds A and B were placed on a single paper disc and the above described DDA procedure repeated.
(f) Supplemented Disc Diffusion Assays
(§7) For assays using S. aureus ATCC 29213 the supplements used were sodium chloride (100 mM), lipid (Tween™ 80 at 1% v/v) and horse serum (5% v/v).

S. aureus ATCC 29213 [6] = assay: Disc diffusion assay (DDA), also supplemented
Experimental: The staphylococci were cultured and maintained on Mueller-Hinton Medium (agar and broth) at pH 7.2; cultures were incubated aerobically at 37° C. for 19-20 hours.
(d) Disc Diffusion Assay (DDA)
as §6
(f) Supplemented Disc Diffusion Assays
as §7

P. acnes NCTC 737 [7] = assay: Minimum bactericidal concentration (MBC) assay; type: cell-based, Propionibacterium acnes
Experimental: as §1, §2

S. aureus ATCC 29213 [8] = assay: Minimum inhibitory concentration (MIC) assay; type: cell-based, Staphylococcus aureus
Source text: as §3, §4, §5

[9] = copper salt + TBHQ on one disc, 200 μg of each (silicate 62 μg), salt and lipid (1% (v/v) Tween 80)
[10] = copper salt + TBHQ on one disc, 200 μg of each (silicate 62 μg), unsupplemented
[11] = copper salt + TBHQ vs larger zone of either compound alone, unsupplemented
[12] = copper salt + TBHQ, salt and lipid (1% (v/v) Tween 80)
[13] = copper salt + TBHQ, unsupplemented
[14] = copper salt alone, S. aureus ATCC 29213
[15] = copper salt alone, 200 μg per disc (silicate 62 μg), 1% (v/v) Tween 80
[16] = copper salt alone, 200 μg per disc (silicate 62 μg), salt and 1% (v/v) Tween 80
[17] = copper salt alone, 200 μg per disc (silicate 62 μg), sodium chloride (100 mM)
[18] = copper salt alone, P. acnes NCTC 737
[19] = copper salt + TBHQ on one disc, 200 μg of each (silicate 62 μg), salt and serum supplements
[20] = copper salt + TBHQ, salt and serum supplements
[21] = copper salt alone, 200 μg per disc (silicate 62 μg), Tween 80 at 1% v/v
[22] = copper salt alone, 200 μg per disc (silicate 62 μg), salt and horse serum (5% v/v)

Copper (II) silicate was tested, and the “SL SDDA with TBHQ” value (P. acnes NCTC 737 [1]; [9]) was 54.96 mm, the “SDDA with TBHQ” value (P. acnes NCTC 737 [1]; [10]) was 54.44 mm and the SDDA increase (P. acnes NCTC 737 [1]; [11]) was 8.76 mm. For the same compound, the “SL SDDA area increase” value (P. acnes NCTC 737 [1]; [12]) was 26.80%, the “SL SDDA increase” value (P. acnes NCTC 737 [1]; [12]) was 6.15 mm and the SDDA area increase (P. acnes NCTC 737 [1]; [13]) was 42.03%. The MBC (S. aureus ATCC 29213 [2]; [14]) was over 77.5 µg/mL, the “DDA + salt & lipid” value (P. acnes NCTC 737 [3]; Example 8, single compound, salt and 1% (v/v) triolein) was 42.56 (±2.18) mm and the “DDA + lipid” value (P. acnes NCTC 737 [3]; [15]) was 33.40 mm. The “DDA + salt & lipid” value (P. acnes NCTC 737 [3]; [16]) was 48.81 mm, the “DDA + salt” value (P. acnes NCTC 737 [3]; [17]) was 41.44 mm and the MIC (P. acnes NCTC 737 [4]; [18]) was 4.84 µg/mL. The MIC/MBC ratio (P. acnes NCTC 737 [4]; [18]) was 0.125, the “SS SDDA with TBHQ” value (S. aureus ATCC 29213 [5]; [19]) was 57.26 mm and the “SDDA with TBHQ” value (S. aureus ATCC 29213 [5]; [10]) was 71.79 mm. For the same compound, the SDDA increase (S. aureus ATCC 29213 [5]; [11]) was 31.37 mm, the “SS SDDA area increase” value (S. aureus ATCC 29213 [5]; [20]) was 71.85% and the “SS SDDA increase” value (S. aureus ATCC 29213 [5]; [20]) was 13.58 mm. The SDDA area increase (S. aureus ATCC 29213 [5]; [13]) was 215.45%, the “DDA + salt & serum” value (S. aureus ATCC 29213 [6]; Example 9, single compound, salt and serum) was 0.00 (±0.00) mm and the “DDA + lipid” value (S. aureus ATCC 29213 [6]; [21]) was 0 mm. The “DDA + salt & serum” value (S. aureus ATCC 29213 [6]; [22]) was 0 mm, the “DDA + salt” value (S. aureus ATCC 29213 [6]; [17]) was 0 mm and the MBC (P. acnes NCTC 737 [7]; [18]) was 38.75 µg/mL. The MIC (S. aureus ATCC 29213 [8]; [14]) was over 77.5 µg/mL.
`CC(=O)Oc1ccccc1C(=O)[O-].CC(=O)Oc1ccccc1C(=O)[O-].CC(=O)Oc1ccccc1C(=O)[O-].CC(=O)Oc1ccccc1C(=O)[O-].[Cu+2].[Cu+2]` [Copper (II) aspirinate] was tested, and the “SL SDDA with TBHQ” value (P. acnes NCTC 737 [1]; [9]) was 58.93 mm, the “SDDA with TBHQ” value (P. acnes NCTC 737 [1]; [10]) was 60.80 mm and the SDDA increase (P. acnes NCTC 737 [1]; [11]) was 16.48 mm. The “SL SDDA area increase” value (P. acnes NCTC 737 [1]; [12]) was 54.20%, the “SL SDDA increase” value (P. acnes NCTC 737 [1]; [12]) was 11.47 mm and the SDDA area increase (P. acnes NCTC 737 [1]; [13]) was 88.19%. The MBC (S. aureus ATCC 29213 [2]; [14]) was over 250 µg/mL, the DDA (P. acnes NCTC 737 [3]) was 44.32 mm and the “DDA + lipid” value (P. acnes NCTC 737 [3]; [15]) was 36.19 mm. The “DDA + salt & lipid” value (P. acnes NCTC 737 [3]; [16]) was 47.45 mm, the “DDA + salt” value (P. acnes NCTC 737 [3]; [17]) was 40.21 mm and the MIC (P. acnes NCTC 737 [4]; [18]) was 15.6 µg/mL. The “SS SDDA with TBHQ” value (S. aureus ATCC 29213 [5]; [19]) was 56.95 mm, the “SDDA with TBHQ” value (S. aureus ATCC 29213 [5]; [10]) was 69.05 mm and the SDDA increase (S. aureus ATCC 29213 [5]; [11]) was 28.63 mm. The “SS SDDA area increase” value (S. aureus ATCC 29213 [5]; [20]) was 69.99%, the “SS SDDA increase” value (S. aureus ATCC 29213 [5]; [20]) was 13.27 mm and the SDDA area increase (S. aureus ATCC 29213 [5]; [13]) was 191.83%. The DDA (S. aureus ATCC 29213 [6]) was 0 mm, the “DDA + lipid” value (S. aureus ATCC 29213 [6]; [21]) was 0 mm and the “DDA + salt & serum” value (S. aureus ATCC 29213 [6]; [22]) was 0 mm. For the same compound, the “DDA + salt” value (S. aureus ATCC 29213 [6]; [17]) was 0 mm, the MBC (P. acnes NCTC 737 [7]; [18]) was 62.5 µg/mL and the MIC (S. aureus ATCC 29213 [8]; [14]) was 125 µg/mL. It also gave an MIC/MBC ratio (S. aureus ATCC 29213 [8]; [14]) of under 0.5.
For Copper (II) salicylate, the SDDA area increase (P. acnes NCTC 737 [1]) was 150.52%, the SDDA increase (P. acnes NCTC 737 [1]) was 27.84 mm and the “SDDA with TBHQ” value (P. acnes NCTC 737 [1]) was 75.61 mm. The “SL SDDA area increase” value (P. acnes NCTC 737 [1]) was 84.98%, the “SL SDDA increase” value (P. acnes NCTC 737 [1]) was 18.25 mm and the “SL SDDA with TBHQ” value (P. acnes NCTC 737 [1]) was 68.94 mm. The MBC (S. aureus ATCC 29213 [2]) was over 250 µg/mL, the DDA (P. acnes NCTC 737 [3]) was 47.77 mm and the “DDA + lipid” value (P. acnes NCTC 737 [3]) was 41.75 mm. The “DDA + salt” value (P. acnes NCTC 737 [3]) was 46.08 mm, the “DDA + salt & lipid” value (P. acnes NCTC 737 [3]) was 50.69 mm and the MIC (P. acnes NCTC 737 [4]) was 7.8 µg/mL. For the same compound, the MIC/MBC ratio (P. acnes NCTC 737 [4]) was 0.25, the SDDA area increase (S. aureus ATCC 29213 [5]) was 61.52% and the SDDA increase (S. aureus ATCC 29213 [5]) was 10.95 mm. The “SDDA with TBHQ” value (S. aureus ATCC 29213 [5]) was 51.37 mm, the “SS SDDA area increase” value (S. aureus ATCC 29213 [5]) was 9.37% and the “SS SDDA increase” value (S. aureus ATCC 29213 [5]) was 2.00 mm. For the same compound, the “SS SDDA with TBHQ” value (S. aureus ATCC 29213 [5]) was 45.68 mm, the DDA (S. aureus ATCC 29213 [6]) was 0 mm and the “DDA + lipid” value (S. aureus ATCC 29213 [6]) was 0 mm. The “DDA + salt” value (S. aureus ATCC 29213 [6]) was 0 mm, the “DDA + salt & serum” value (S. aureus ATCC 29213 [6]) was 0 mm and the MBC (P. acnes NCTC 737 [7]) was 31.25 µg/mL. The MIC (S. aureus ATCC 29213 [8]) was 250 µg/mL and the MIC/MBC ratio (S. aureus ATCC 29213 [8]) was under 1.
With `On1ccccc1=S.On1ccccc1=S.[Cu]` [Copper (II) pyrithione] the SDDA area increase (P. acnes NCTC 737 [1]) was 18.55%, the SDDA increase (P. acnes NCTC 737 [1]) was 5.01 mm and the “SDDA with TBHQ” value (P. acnes NCTC 737 [1]) was 61.43 mm. The “SL SDDA area increase” value (P. acnes NCTC 737 [1]) was 7.64%, the “SL SDDA increase” value (P. acnes NCTC 737 [1]) was 1.25 mm and the “SL SDDA with TBHQ” value (P. acnes NCTC 737 [1]) was 34.63 mm. The MBC (S. aureus ATCC 29213 [2]) was 0.49 µg/mL, the DDA (P. acnes NCTC 737 [3]) was 56.42 mm and the “DDA + lipid” value (P. acnes NCTC 737 [3]) was 22.38 mm. The “DDA + salt” value (P. acnes NCTC 737 [3]) was 43.21 mm, the “DDA + salt & lipid” value (P. acnes NCTC 737 [3]) was 33.37 mm and the MIC (P. acnes NCTC 737 [4]) was 0.24 µg/mL. For the same compound, the MIC/MBC ratio (P. acnes NCTC 737 [4]) was 0.5, the SDDA area increase (S. aureus ATCC 29213 [5]) was 150.13% and the SDDA increase (S. aureus ATCC 29213 [5]) was 19.29 mm. For the same compound, the “SDDA with TBHQ” value (S. aureus ATCC 29213 [5]) was 52.45 mm, the “SS SDDA area increase” value (S. aureus ATCC 29213 [5]) was 66.12% and the “SS SDDA increase” value (S. aureus ATCC 29213 [5]) was 9.29 mm. For the same compound, the “SS SDDA with TBHQ” value (S. aureus ATCC 29213 [5]) was 41.43 mm, the DDA (S. aureus ATCC 29213 [6]) was 20.51 mm and the “DDA + lipid” value (S. aureus ATCC 29213 [6]) was 15.25 mm. The “DDA + salt” value (S. aureus ATCC 29213 [6]) was 21.48 mm, the “DDA + salt & serum” value (S. aureus ATCC 29213 [6]) was 17.86 mm and the MBC (P. acnes NCTC 737 [7]) was 0.49 µg/mL. The MIC (S. aureus ATCC 29213 [8]) was 0.49 µg/mL and the MIC/MBC ratio (S. aureus ATCC 29213 [8]) was 1.
